Test results published in publication PMC5615050 (Scientific Reports, 2017).

target: Bac-NA^H274Y H1N1 (Influenza A virus, UniProt P03470, H259Y); test: biochemical

Structure (SMILES)	IC50
CC1OC(OC2CC(O)C3(CO)C4C(O)CC5(C)C(C6COC(O)C6)CCC5(O)C4CCC3(O)C2)C(O)C(O)C1O (stereo not drawn) [BPR1P0003S0]	> 40 µM
CC12CCC(O)CC1CCC1C2CC(O)C2(C)C(C3=CC(=O)OC3)CCC12O (stereo not drawn) [BPR1P0007S0]	> 40 µM
CC12CCC(O)CC1CCC1C2CCC2(C)C(C3=CC(=O)OC3)CCC12O (stereo not drawn) [BPR1P0008S0]	> 40 µM
